Like-named read-outs stand apart in the source and are kept apart here.
Tested on: peripheral blood mononuclear cells from HIV-1 seronegative individuals
Settings: for IFN-γ spots/10^6 PBMC, Average (AV): average of 8 seronegative individuals; for IFN-γ spots/10^6 PBMC, Average (AV) / IFN-γ spots/10^6 PBMC: peptide 5 μM; for IFN-γ spots/10^6 PBMC, AV + 3SD: average plus 3 standard deviations, 8 seronegative individuals
Procedure: Step d) is achieved by synthesizing the peptides representing the epitopes of the present invention, followed by ELISPOT assay to detect IFN-γ-producing cells. For the purposes of the present invention, the positivity cutoff value used is ≧30 SFC IFN-γ/10^6 PBMC, calculated based on the levels of responses of HIV-1 seronegative patients
Synthetic peptide stocks were diluted to 25 mg/mL in dimethylsulphoxide, followed by ELISPOT assays for detection of IFN-γ-producing cells in response to the epitopes using peripheral blood mononuclear cells (PBMC) in 34 HIV-1+ patients of several clinical groups, long-term nonprogressors (LTNP), reconsituted, partial controllers, and progressors. Each epitope was tested in a concentration of 5 μM. The cryopreserved cells were maintained in culture for 16 hours, placed on plates in the presence of the epitopes, incubated for a further 18 hours, washed and ELISPOT plates were developed for the identification of spot-forming cells/Interferon-γ-producing cells (IFN-γ SFC), which were then counted in an automated counter (Zeiss KS ELISpot/Axioplan 2).

Row | Sequence | IFN-γ spots/10^6 PBMC, Average (AV) | IFN-γ spots/10^6 PBMC, AV + 3SD | IFN-γ spots/10^6 PBMC (seronegative individual C#01) | IFN-γ spots/10^6 PBMC (seronegative individual C#02) | IFN-γ spots/10^6 PBMC (seronegative individual C#03) | IFN-γ spots/10^6 PBMC (seronegative individual C#04) | IFN-γ spots/10^6 PBMC (seronegative individual C#05) | IFN-γ spots/10^6 PBMC (seronegative individual C#06) | IFN-γ spots/10^6 PBMC (seronegative individual C#07) | IFN-γ spots/10^6 PBMC (seronegative individual C#08)
1 | SELYLYKVVKIEPLGVAP [env 5] | 0.6 spots/10^6 PBMC | 5.9 spots/10^6 PBMC | 0 spots/10^6 PBMC | 0 spots/10^6 PBMC | 5 spots/10^6 PBMC | 0 spots/10^6 PBMC | 0 spots/10^6 PBMC | 0 spots/10^6 PBMC | 0 spots/10^6 PBMC | 0 spots/10^6 PBMC
2 | ALFYKLDVVPID [env 3] | 1.5 spots/10^6 PBMC | 10 spots/10^6 PBMC | 5 spots/10^6 PBMC | 0 spots/10^6 PBMC | 0 spots/10^6 PBMC | 7 spots/10^6 PBMC | 0 spots/10^6 PBMC | 0 spots/10^6 PBMC | 0 spots/10^6 PBMC | 0 spots/10^6 PBMC
3 | NTSYRLISCNTSVI [env 4] | 5.2 spots/10^6 PBMC | 24.6 spots/10^6 PBMC | 0 spots/10^6 PBMC | 7 spots/10^6 PBMC | 15 spots/10^6 PBMC | 2 spots/10^6 PBMC | 3 spots/10^6 PBMC | 0 spots/10^6 PBMC | 0 spots/10^6 PBMC | 15 spots/10^6 PBMC
4 | VLEWRFDSRLAFHHV [nef 1] | 4.4 spots/10^6 PBMC | 17.7 spots/10^6 PBMC | 0 spots/10^6 PBMC | 3 spots/10^6 PBMC | 7 spots/10^6 PBMC | 12 spots/10^6 PBMC | 8 spots/10^6 PBMC | 0 spots/10^6 PBMC | 0 spots/10^6 PBMC | 5 spots/10^6 PBMC
5 | EELRSLYNTVATLYCVH [gag 1] | 1.7 spots/10^6 PBMC | 10.0 spots/10^6 PBMC | 0 spots/10^6 PBMC | 7 spots/10^6 PBMC | 0 spots/10^6 PBMC | 2 spots/10^6 PBMC | 0 spots/10^6 PBMC | 0 spots/10^6 PBMC | 0 spots/10^6 PBMC | 5 spots/10^6 PBMC
6 | GKIILVAVHVASGYI [pol 3] | 0.2 spots/10^6 PBMC | 2.4 spots/10^6 PBMC | 0 spots/10^6 PBMC | 2 spots/10^6 PBMC | 0 spots/10^6 PBMC | 0 spots/10^6 PBMC | 0 spots/10^6 PBMC | 0 spots/10^6 PBMC | 0 spots/10^6 PBMC | 0 spots/10^6 PBMC
7 | TMLLGMLMICSAA [env 2] | 3.4 spots/10^6 PBMC | 19.7 spots/10^6 PBMC | 0 spots/10^6 PBMC | 7 spots/10^6 PBMC | 5 spots/10^6 PBMC | 0 spots/10^6 PBMC | 0 spots/10^6 PBMC | 0 spots/10^6 PBMC | 0 spots/10^6 PBMC | 15 spots/10^6 PBMC
8 | SLQYLALVALVAPKK [vif 2] | 3.1 spots/10^6 PBMC | 19.7 spots/10^6 PBMC | 0 spots/10^6 PBMC | 8 spots/10^6 PBMC | 2 spots/10^6 PBMC | 0 spots/10^6 PBMC | 0 spots/10^6 PBMC | 0 spots/10^6 PBMC | 0 spots/10^6 PBMC | 15 spots/10^6 PBMC

Source: patent US8338582B2, “Anti-HIV immunogens and methods for inducing an immune response” (Fundacao de Amparo a Pesquisa do Estado de Sao Paulo, priority 2005, dated 2012)
